From the kinase profiling compilation of Christmann-Franck et al. (2016)

Columns and labels:
Assay in all cases: split-luciferase competition binding
AKT1 (human) = AKT1 (human) (UniProt P31749); conditions: compound 10.0 µM
AKT2 (human) = AKT2 (human) (UniProt P31751); conditions: compound 10.0 µM
AKT3 (human) = AKT3 (human) (UniProt Q9Y243); conditions: compound 10.0 µM
AURKA (human) = AURKA (human) (UniProt O14965); conditions: compound 10.0 µM
AURKB (human) = AURKB (human) (UniProt Q96GD4); conditions: compound 10.0 µM
AURKC (human) = AURKC (human) (UniProt Q9UQB9); conditions: compound 10.0 µM
DMPK (human) = DMPK (human) (UniProt Q09013); conditions: compound 10.0 µM
PDPK1 (human) = PDPK1 (human) (UniProt O15530); conditions: compound 10.0 µM
PKN1 (human) = PKN1 (human) (UniProt Q16512); conditions: compound 10.0 µM
PRKACA (mouse) = conditions: compound 10.0 µM; accession and sequence are those of the human protein
PRKACB (human) = PRKACB (human) (UniProt P22694); conditions: compound 10.0 µM
PRKCD (human) = PRKCD (human) (UniProt Q05655); conditions: compound 10.0 µM
PRKCE (human) = PRKCE (human) (UniProt Q02156); conditions: compound 10.0 µM
PRKCG (human) = PRKCG (human) (UniProt P05129); conditions: compound 10.0 µM
PRKCH (human) = PRKCH (human) (UniProt P24723); conditions: compound 10.0 µM
PRKCI (human) = PRKCI (human) (UniProt P41743); conditions: compound 10.0 µM
PRKCQ (human) = PRKCQ (human) (UniProt Q04759); conditions: compound 10.0 µM
PRKX (human) = PRKX (human) (UniProt P51817); conditions: compound 10.0 µM
RPS6KA1 KD1 (human) = RPS6KA1 KD1 (human) (UniProt Q15418); conditions: compound 10.0 µM
RPS6KA2 KD1 (human) = RPS6KA2 KD1 (human) (UniProt Q15349); conditions: compound 10.0 µM
RPS6KA3 KD1 (human) = RPS6KA3 KD1 (human) (UniProt P51812); conditions: compound 10.0 µM
RPS6KA4 KD1 (human) = RPS6KA4 KD1 (human) (UniProt O75676); conditions: compound 10.0 µM
RPS6KA5 KD1 (human) = RPS6KA5 KD1 (human) (UniProt O75582); conditions: compound 10.0 µM
RPS6KA6 KD1 (human) = RPS6KA6 KD1 (human) (UniProt Q9UK32); conditions: compound 10.0 µM
SGK2 (human) = SGK2 (human) (UniProt Q9HBY8); conditions: compound 10.0 µM
SGK3 (human) = SGK3 (human) (UniProt Q96BR1); conditions: compound 10.0 µM
STK32B (human) = STK32B (human) (UniProt Q9NY57); conditions: compound 10.0 µM
Sequence of STK32B (human) (Q9NY57 whole entry, looked up): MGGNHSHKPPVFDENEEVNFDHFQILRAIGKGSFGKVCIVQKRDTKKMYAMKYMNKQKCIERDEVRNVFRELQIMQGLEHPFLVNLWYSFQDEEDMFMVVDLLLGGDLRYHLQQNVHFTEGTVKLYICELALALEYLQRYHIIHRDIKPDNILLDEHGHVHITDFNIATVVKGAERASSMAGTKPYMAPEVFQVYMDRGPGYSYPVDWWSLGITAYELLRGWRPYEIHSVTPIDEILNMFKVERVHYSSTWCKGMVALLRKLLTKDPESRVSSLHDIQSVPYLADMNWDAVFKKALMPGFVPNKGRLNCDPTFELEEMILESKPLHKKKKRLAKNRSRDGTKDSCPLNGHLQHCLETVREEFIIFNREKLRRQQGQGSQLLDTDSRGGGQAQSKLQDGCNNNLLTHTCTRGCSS

Sequence of SGK2 (human) (Q9HBY8 whole entry, looked up): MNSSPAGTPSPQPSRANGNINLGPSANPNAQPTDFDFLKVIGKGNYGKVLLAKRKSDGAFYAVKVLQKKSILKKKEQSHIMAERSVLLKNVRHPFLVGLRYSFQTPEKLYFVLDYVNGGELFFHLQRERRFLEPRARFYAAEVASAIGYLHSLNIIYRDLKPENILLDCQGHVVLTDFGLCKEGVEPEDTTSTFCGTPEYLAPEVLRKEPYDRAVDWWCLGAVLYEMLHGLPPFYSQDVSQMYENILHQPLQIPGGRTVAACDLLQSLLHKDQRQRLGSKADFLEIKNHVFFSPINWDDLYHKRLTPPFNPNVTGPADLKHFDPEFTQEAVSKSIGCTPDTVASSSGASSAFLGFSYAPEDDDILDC
Sequence of RPS6KA6 KD1 (human) (Q9UK32 whole entry, looked up): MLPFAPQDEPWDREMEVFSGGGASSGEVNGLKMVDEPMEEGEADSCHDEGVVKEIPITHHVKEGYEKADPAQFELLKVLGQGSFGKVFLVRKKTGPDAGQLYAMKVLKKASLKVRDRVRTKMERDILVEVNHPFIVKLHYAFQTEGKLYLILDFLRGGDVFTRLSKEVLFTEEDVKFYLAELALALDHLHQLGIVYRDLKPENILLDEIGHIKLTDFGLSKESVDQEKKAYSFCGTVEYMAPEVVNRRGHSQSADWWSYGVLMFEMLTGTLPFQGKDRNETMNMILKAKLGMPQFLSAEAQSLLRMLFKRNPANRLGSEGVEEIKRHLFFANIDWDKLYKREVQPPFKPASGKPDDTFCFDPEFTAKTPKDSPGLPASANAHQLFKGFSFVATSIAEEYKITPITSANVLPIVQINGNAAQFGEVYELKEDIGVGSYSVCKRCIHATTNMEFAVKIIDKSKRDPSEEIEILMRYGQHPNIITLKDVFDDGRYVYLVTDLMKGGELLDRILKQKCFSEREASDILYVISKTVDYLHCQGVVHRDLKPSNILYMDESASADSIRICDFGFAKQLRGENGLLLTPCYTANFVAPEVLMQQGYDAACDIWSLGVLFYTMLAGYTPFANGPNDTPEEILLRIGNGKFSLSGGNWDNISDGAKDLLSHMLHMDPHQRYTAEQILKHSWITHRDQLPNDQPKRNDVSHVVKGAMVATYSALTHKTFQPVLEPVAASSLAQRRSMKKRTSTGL
Sequence of DMPK (human) (Q09013 whole entry, looked up): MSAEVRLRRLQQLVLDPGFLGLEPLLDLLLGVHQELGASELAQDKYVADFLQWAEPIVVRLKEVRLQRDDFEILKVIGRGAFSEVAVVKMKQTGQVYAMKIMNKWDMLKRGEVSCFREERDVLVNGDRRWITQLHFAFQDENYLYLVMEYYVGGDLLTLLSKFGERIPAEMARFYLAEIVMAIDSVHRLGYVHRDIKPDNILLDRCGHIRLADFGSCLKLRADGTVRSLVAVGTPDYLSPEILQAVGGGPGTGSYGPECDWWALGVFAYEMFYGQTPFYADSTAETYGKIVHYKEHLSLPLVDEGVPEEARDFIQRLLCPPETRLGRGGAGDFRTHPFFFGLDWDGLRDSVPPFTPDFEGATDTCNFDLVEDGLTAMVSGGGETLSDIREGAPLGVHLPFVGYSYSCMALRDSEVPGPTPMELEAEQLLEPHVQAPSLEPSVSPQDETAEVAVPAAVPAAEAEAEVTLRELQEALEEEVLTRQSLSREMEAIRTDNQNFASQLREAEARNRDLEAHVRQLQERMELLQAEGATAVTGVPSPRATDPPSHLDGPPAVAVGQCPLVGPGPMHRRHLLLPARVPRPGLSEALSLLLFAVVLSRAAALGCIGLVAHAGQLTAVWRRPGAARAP
Sequence of PKN1 (human) (Q16512 whole entry, looked up): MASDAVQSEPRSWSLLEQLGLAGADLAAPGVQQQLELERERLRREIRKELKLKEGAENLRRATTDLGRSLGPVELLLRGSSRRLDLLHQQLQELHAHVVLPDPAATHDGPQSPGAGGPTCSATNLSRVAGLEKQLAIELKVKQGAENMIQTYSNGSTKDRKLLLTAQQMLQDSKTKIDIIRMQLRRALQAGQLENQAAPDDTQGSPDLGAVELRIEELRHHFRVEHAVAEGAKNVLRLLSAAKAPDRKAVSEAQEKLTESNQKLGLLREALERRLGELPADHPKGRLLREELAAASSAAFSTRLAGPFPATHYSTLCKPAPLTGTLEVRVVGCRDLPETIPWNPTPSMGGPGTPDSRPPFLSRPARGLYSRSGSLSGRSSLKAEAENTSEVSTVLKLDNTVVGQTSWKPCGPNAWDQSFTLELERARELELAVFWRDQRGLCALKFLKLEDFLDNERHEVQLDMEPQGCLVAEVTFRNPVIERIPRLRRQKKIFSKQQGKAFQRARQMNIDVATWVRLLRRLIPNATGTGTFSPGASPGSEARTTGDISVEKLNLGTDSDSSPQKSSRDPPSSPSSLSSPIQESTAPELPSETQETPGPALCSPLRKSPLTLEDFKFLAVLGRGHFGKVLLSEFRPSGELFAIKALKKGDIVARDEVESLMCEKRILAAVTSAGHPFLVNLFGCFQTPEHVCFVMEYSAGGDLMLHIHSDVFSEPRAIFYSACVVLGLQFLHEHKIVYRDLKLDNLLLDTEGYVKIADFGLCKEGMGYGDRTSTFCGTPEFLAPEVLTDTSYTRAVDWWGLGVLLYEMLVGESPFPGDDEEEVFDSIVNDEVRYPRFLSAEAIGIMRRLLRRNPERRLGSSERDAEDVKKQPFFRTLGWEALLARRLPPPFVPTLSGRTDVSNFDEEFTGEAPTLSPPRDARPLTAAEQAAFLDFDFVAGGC
Sequence of AKT3 (human) (Q9Y243 whole entry, looked up): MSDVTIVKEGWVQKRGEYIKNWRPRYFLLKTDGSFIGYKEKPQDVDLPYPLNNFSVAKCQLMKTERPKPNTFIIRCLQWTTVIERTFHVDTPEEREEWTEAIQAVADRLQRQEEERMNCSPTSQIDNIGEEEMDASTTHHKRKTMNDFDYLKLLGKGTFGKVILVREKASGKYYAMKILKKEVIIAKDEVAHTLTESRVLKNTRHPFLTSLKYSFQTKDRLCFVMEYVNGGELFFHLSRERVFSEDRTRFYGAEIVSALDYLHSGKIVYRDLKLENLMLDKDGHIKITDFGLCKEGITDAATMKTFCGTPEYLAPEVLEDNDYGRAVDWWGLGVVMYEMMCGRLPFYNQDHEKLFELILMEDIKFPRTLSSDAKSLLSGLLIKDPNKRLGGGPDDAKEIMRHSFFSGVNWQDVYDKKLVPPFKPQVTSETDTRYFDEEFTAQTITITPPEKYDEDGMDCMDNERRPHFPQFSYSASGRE
Sequence of PRKCH (human) (P24723 whole entry, looked up): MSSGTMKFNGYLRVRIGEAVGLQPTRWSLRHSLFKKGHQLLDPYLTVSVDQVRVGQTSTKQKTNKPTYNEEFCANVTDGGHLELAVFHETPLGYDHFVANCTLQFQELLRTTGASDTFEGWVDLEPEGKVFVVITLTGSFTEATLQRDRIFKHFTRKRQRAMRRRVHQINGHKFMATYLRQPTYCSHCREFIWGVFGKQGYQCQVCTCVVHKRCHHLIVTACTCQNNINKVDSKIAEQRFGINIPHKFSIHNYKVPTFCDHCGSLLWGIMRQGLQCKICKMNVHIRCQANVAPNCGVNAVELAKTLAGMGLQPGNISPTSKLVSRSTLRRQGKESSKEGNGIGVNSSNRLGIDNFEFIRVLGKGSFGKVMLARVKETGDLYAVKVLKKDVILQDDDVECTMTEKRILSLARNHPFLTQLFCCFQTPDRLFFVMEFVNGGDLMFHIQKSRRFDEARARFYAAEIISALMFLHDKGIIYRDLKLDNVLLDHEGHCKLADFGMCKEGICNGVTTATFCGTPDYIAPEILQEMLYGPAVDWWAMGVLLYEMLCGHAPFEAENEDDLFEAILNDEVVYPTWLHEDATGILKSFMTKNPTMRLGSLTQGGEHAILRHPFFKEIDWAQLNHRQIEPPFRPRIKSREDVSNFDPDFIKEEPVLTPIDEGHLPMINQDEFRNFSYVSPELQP
Sequence of PRKX (human) (P51817 whole entry, looked up): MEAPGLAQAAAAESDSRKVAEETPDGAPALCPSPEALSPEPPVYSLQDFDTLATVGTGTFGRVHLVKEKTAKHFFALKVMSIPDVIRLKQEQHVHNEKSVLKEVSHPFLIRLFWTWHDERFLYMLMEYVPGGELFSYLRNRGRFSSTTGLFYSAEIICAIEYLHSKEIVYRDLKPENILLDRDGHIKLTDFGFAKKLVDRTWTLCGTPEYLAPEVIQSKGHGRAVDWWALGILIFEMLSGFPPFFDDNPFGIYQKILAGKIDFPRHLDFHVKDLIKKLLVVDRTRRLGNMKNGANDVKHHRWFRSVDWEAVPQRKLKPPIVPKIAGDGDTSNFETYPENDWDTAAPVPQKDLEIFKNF
Sequence of AURKA (human) (O14965 whole entry, looked up): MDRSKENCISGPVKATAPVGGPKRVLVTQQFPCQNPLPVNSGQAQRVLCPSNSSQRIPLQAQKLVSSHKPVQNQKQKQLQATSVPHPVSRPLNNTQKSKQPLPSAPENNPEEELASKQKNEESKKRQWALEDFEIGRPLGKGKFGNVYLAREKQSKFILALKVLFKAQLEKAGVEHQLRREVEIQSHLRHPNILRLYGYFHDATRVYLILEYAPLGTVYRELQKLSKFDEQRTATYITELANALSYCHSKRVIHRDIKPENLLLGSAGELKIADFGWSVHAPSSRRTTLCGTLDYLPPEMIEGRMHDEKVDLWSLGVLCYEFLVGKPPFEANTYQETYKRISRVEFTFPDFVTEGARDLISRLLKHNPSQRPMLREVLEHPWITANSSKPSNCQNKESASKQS

| Compound | inhibition (AKT1 (human)) [%] | inhibition (AKT2 (human)) [%] | inhibition (AKT3 (human)) [%] | inhibition (AURKA (human)) [%] | inhibition (AURKB (human)) [%] | inhibition (AURKC (human)) [%] | inhibition (DMPK (human)) [%] | inhibition (PDPK1 (human)) [%] | inhibition (PKN1 (human)) [%] | inhibition (PRKACA (mouse)) [%] | inhibition (PRKACB (human)) [%] | inhibition (PRKCD (human)) [%] | inhibition (PRKCE (human)) [%] | inhibition (PRKCG (human)) [%] | inhibition (PRKCH (human)) [%] | inhibition (PRKCI (human)) [%] | inhibition (PRKCQ (human)) [%] | inhibition (PRKX (human)) [%] | inhibition (RPS6KA1 KD1 (human)) [%] | inhibition (RPS6KA2 KD1 (human)) [%] | further results |
| --- | --- | --- | --- | --- | --- | --- | --- | --- | --- | --- | --- | --- | --- | --- | --- | --- | --- | --- | --- | --- | --- |
| COc1cc2ncnc(Nc3ccc(F)c(Cl)c3)c2cc1OCCCN1CCOCC1 | 0 | 0 | 0 | 0 | 27 | 19 | 13 | 2 | 0 | 1 | 0 | 0 | 7 | 9 | 0 | 0 | 2 | 7 | 0 | 0 | inhibition (RPS6KA3 KD1 (human)): 0%; inhibition (RPS6KA4 KD1 (human)): 0%; inhibition (RPS6KA5 KD1 (human)): 0%; inhibition (RPS6KA6 KD1 (human)): 0%; inhibition (SGK2 (human)): 0%; inhibition (SGK3 (human)): 3%; inhibition (STK32B (human)): 0% |
| N#C/C(=C\c1ccc(O)c(O)c1)C(=O)NCc1ccccc1 | 0 | 0 | 0 | 0 | 0 | 10 | 0 | 0 | 0 | 3 | 0 | 2 | 0 | 0 | 0 | 0 | 0 | 0 | 0 | 0 | inhibition (RPS6KA3 KD1 (human)): 0%; inhibition (RPS6KA4 KD1 (human)): 0%; inhibition (RPS6KA5 KD1 (human)): 0%; inhibition (RPS6KA6 KD1 (human)): 0%; inhibition (SGK2 (human)): 0%; inhibition (SGK3 (human)): 0%; inhibition (STK32B (human)): 0% |
| COc1cc2nccc(Oc3ccc(NC(=O)Nc4ccc(F)cc4F)c(F)c3)c2cc1OC | 6 | 0 | 0 | 41 | 71 | 80 | 13 | 0 | 10 | 16 | 5 | 0 | 0 | 3 | 0 | 0 | 20 | 12 | 0 | 32 | inhibition (RPS6KA3 KD1 (human)): 12%; inhibition (RPS6KA4 KD1 (human)): 23%; inhibition (RPS6KA5 KD1 (human)): 43%; inhibition (RPS6KA6 KD1 (human)): 21%; inhibition (SGK2 (human)): 17%; inhibition (SGK3 (human)): 12%; inhibition (STK32B (human)): 0% |
| O=S(=O)(c1cccc2c(Cl)cccc12)N1CCCNCC1 | 2 | 0 | 0 | 0 | 13 | 0 | 0 | 0 | 1 | 3 | 0 | 0 | 0 | 0 | 0 | 1 | 0 | 25 | 0 | 1 | inhibition (RPS6KA3 KD1 (human)): 0%; inhibition (RPS6KA4 KD1 (human)): 0%; inhibition (RPS6KA5 KD1 (human)): 0%; inhibition (RPS6KA6 KD1 (human)): 0%; inhibition (SGK2 (human)): 0%; inhibition (SGK3 (human)): 0%; inhibition (STK32B (human)): 0% |
| NC(=O)Nc1sc(-c2ccc(F)cc2)cc1C(N)=O | 0 | 0 | 0 | 1 | 56 | 31 | 0 | 0 | 0 | 4 | 0 | 0 | 19 | 0 | 56 | 0 | 18 | 9 | 44 | 20 | inhibition (RPS6KA3 KD1 (human)): 7%; inhibition (RPS6KA4 KD1 (human)): 16%; inhibition (RPS6KA5 KD1 (human)): 0%; inhibition (RPS6KA6 KD1 (human)): 37%; inhibition (SGK2 (human)): 0%; inhibition (SGK3 (human)): 0%; inhibition (STK32B (human)): 0% |
| O=C1Nc2ccc(I)cc2/C1=C/c1cc(Br)c(O)c(Br)c1 | 19 | 0 | 0 | 0 | 26 | 0 | 11 | 0 | 4 | 9 | 11 | 2 | 10 | 5 | 10 | 0 | 0 | 11 | 23 | 14 | inhibition (RPS6KA3 KD1 (human)): 12%; inhibition (RPS6KA4 KD1 (human)): 4%; inhibition (RPS6KA5 KD1 (human)): 13%; inhibition (RPS6KA6 KD1 (human)): 19%; inhibition (SGK2 (human)): 10%; inhibition (SGK3 (human)): 0%; inhibition (STK32B (human)): 0% |
